Assay results taken from US10150737B2, “Compounds for controlling arthropods” (priority 2013, dated 2018).

How the values were obtained:
[1] = logP determination by HPLC on a reversed-phase column (C18); type: physicochemical; conditions: for logP^a): HPLC-MS method a)
[2] = tested on: Rhipicephalus sanguineus; assay: Rhipicephalus sanguineus - in vitro contact tests with adult brown dog ticks; type: in vivo; conditions: application rate 5 μg/cm2; after 48 h; ticks dead or moribund
How it was run: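 Test tubes coated with active ingredient in acetone, 5 μg/cm^2 at 900 ppm. 5-10 adult ticks per tube, kept dark at room temperature for 48 h. Ticks then heated at 45-50° C ≤5 min; motionless or uncoordinated ticks scored dead/moribund, efficacy as % dead or moribund.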

[3] = tested on: Ctenocephalides felis; assay: Ctenocephalides felis - in vitro contact tests with adult cat fleas; type: in vivo; conditions: application rate 5 μg/cm2 (=500 g/ha); after 48 h; fleas dead or moribund
How it was run: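 Tubes coated with compound in acetone (250 μl of 900 ppm solution gives 5 μg/cm^2 on 44.7 cm^2), solvent evaporated, then 5–10 adult fleas added and kept horizontal at room temperature and ambient humidity. After 48 h, dead or moribund (motionless/uncoordinated) fleas scored as % efficacy.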

[4] = tested on: Amblyomma hebraeum; assay: Amblyomma hebaraeum test (tick nymphs, immersion); type: in vivo; conditions: application rate 100 ppm; tick nymphs immersed one minute; after 42 days
How it was run: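 Tick nymphs immersed for one minute in compound diluted in water from a DMSO concentrate, then held on filter paper in a Petri dish in a climate-controlled cabinet. Kill (%) scored after 42 days; 100% means all ticks dead, 0% none.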

[5] = tested on: Boophilus microplus; assay: Boophilus microplus - injection test; type: in vivo; conditions: application rate 20 μg/animal, injection into engorged adult female ticks, after 7 days
How it was run: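 Active ingredient in DMSO, 1 μl injected into the abdomen of 5 engorged adult female ticks, then held in a climate-controlled room. Efficacy scored after 7 days from laying of fertile eggs, with non-fertile-looking eggs kept about 42 days for larval hatch; 100% means no fertile eggs.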

[6] = tested on: Boophilus microplus Parkhurst strain, SP-resistant; assay: Boophilus microplus - dip test; type: in vivo; conditions: application rate 100 ppm; dip of engorged adult female ticks; after 7 days
How it was run: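 SP-resistant Parkhurst strain engorged adult female Boophilus microplus (8-10 per tube) dipped in DMSO-based compound dilutions in water, then kept in a climate-controlled room. Efficacy scored after 7 days from fertile egg laying, with larval hatch checked after about 42 days; 100% means no fertile eggs.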

[7] = tested on: Ctenocephalides felis; assay: Ctenocephalides felis - oral test; type: in vivo; conditions: application rate 100 ppm in citrated cattle blood; after 2 days
How it was run: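 Compound in DMSO diluted into citrated cattle blood, fed through a parafilm membrane to about 20 unfed adult cat fleas. Kill in % scored after 2 days (100% = all dead).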

[8] = tested on: Lucilia cuprina; assay: Lucilia cuprina test; type: in vivo; conditions: application rate 100 ppm; L1 larvae; after 2 days
How it was run: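 About 20 L1 larvae placed on minced horsemeat treated with compound, formulated in DMSO and diluted with water to test concentration. Kill in % scored after 2 days (100% = all larvae dead, 0% = none).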

[9] = tested on: Musca domestica; assay: Musca domestica test; type: in vivo; conditions: application rate 100 ppm; adult houseflies; after 2 days
How it was run: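 Percent kill of adult houseflies is recorded 2 days after exposure, where 100% denotes all flies dead and 0% none. Flies (10 per vessel) feed from a sponge carrying sugar solution and the aqueous-diluted DMSO formulation.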

[10] = tested on: Myzus persicae; assay: Myzus persicae - spray test; type: in vivo; conditions: Chinese cabbage leaf discs, after 6 days
How it was run: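 Chinese cabbage leaf discs carrying all stages of Myzus persicae sprayed with compound in acetone/DMF diluted in water with 1000 ppm emulsifier. Efficacy (% aphids killed) assessed after 6 days.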

[11] = tested on: Phaedon cochleariae; assay: Phaedon cochleariae - spray test; type: in vivo; conditions: larvae on Chinese cabbage leaf discs, after 7 days
How it was run: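 Chinese cabbage leaf discs sprayed with compound formulated in acetone/DMF and water containing 1000 ppm emulsifier; once dry, infested with mustard beetle larvae. Efficacy (% larvae killed) scored after 7 days.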

[12] = tested on: Spodoptera frugiperda; assay: Spodoptera frugiperda - spray test; type: in vivo; conditions: caterpillars on maize leaf discs, after 7 days
How it was run: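 Maize leaf discs sprayed with compound formulated in acetone/DMF and diluted in water containing 1000 ppm alkylaryl polyglycol ether emulsifier, then infested with armyworm caterpillars after drying. Efficacy scored after 7 days as % caterpillars killed (100% all, 0% none).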

[13] = tested on: Tetranychus urticae; assay: Tetranychus urticae - spray test, OP-resistant; type: in vivo; conditions: bean leaf discs, after 6 days
How it was run: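 Compound dissolved in acetone/DMF, diluted with water containing 1000 ppm alkylaryl polyglycol ether emulsifier to test concentrations. Bean leaf discs infested with all stages of spider mites were sprayed; % kill determined after 6 days (100% = all mites dead, 0% = none).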

[14] = reversed-phase column (C18), Table I-T3

Row | Structure (SMILES) | logP^a) [1] | logP^a) [1, 14] | efficacy [2] | efficacy [3] | efficacy (kill) [4] | efficacy (laying of fertile eggs) [5] | efficacy (laying of fertile eggs) [6] | efficacy (kill) [7] | efficacy (kill) [8] | efficacy (kill) [9] | efficacy ([10]; application rate 100 g/ha) | efficacy ([11]; application rate 100 g/ha) | efficacy ([12]; application rate 100 g/ha) | efficacy ([13]; application rate 100 g/ha) | efficacy ([10]; application rate 500 g/ha) | efficacy ([11]; application rate 500 g/ha) | efficacy ([12]; application rate 500 g/ha) | efficacy ([13]; application rate 500 g/ha) | logP ([1]; HPLC, C18 reversed phase, acetonitrile/water with formic acid, EEC Directive 79/831 Annex V.A8) | pest or weed control at 0.02 mg ([5]; Rhipicephalus microplus, 168 h, read-out: efficacy (laying of fertile eggs))
1 | Cc1cc(C(F)(C(F)(F)F)C(F)(F)F)cc(C)c1-n1cc(-c2ccc(Cl)c(C(=O)NC3(C#N)CC3)c2)cn1 [I-T3-3] | 4.2 | 4.2 | 100% | 100% | 100% | 100% | 100% | 100% | 100% | 100% | 100% | 100% | 100% | 100% | – | – | – | – | – | –
2 | Cc1cc(C(F)(C(F)(F)F)C(F)(F)F)cc(C)c1-n1cc(-c2cnc(Cl)c(C(=O)NC3CC3)c2)cn1 [I-T3-20] | 3.8 | 3.8 | 100% | 100% | 100% | 100% | 100% | 100% | 100% | 100% | – | – | – | – | 100% | 100% | 100% | 100% | – | –
3 | Cc1cc(C(F)(C(F)(F)F)C(F)(F)F)cc(C)c1-n1cc(-c2cnc(Cl)c(C(=O)NC3(C#N)CC3)c2)cn1 [I-T3-21] | 3.7 | 3.7 | 100% | 100% | 100% | 100% | 100% | 100% | 100% | 100% | – | – | – | – | 90% | 100% | 100% | 100% | – | –
4 | O=C(NC1CC1)c1cc(-c2cnn(-c3c(Cl)cc(C(F)(C(F)(F)F)C(F)(F)F)cc3Cl)c2)cnc1Cl [I-T3-42] | 3.8 | 3.8 | 100% | 100% | 100% | 100% | 100% | 100% | 100% | 100% | – | – | – | – | 90% | 100% | 100% | 100% | – | –
5 | N#CC1(NC(=O)c2cc(-c3cnn(-c4c(Cl)cc(C(F)(C(F)(F)F)C(F)(F)F)cc4Cl)c3)cnc2Cl)CC1 [I-T3-43] | 3.8 | 3.8 | 80% | 100% | 100% | 100% | 100% | 100% | 100% | 100% | – | – | – | – | 100% | 100% | 100% | 100% | – | –
6 | CCc1cc(C(F)(C(F)(F)F)C(F)(F)F)cc(C)c1-n1cc(-c2ccc(Cl)c(C(=O)NC3CC3)c2)cn1 [I-T3-44] | 4.7 | 4.7 | 100% | 100% | 100% | 100% | 100% | 100% | 100% | – | – | – | – | – | 100% | 100% | 100% | 100% | – | –
7 | N#CC1(NC(=O)c2cc(-c3cnn(-c4ccc(C(F)(C(F)(F)F)C(F)(F)F)cc4C(F)(F)F)c3)ccc2Cl)CC1 [I-T3-53] | 4.3 | 4.3 | 100% | – | 80% | 100% | 100% | 100% | 100% | 100% | 90% | 100% | 100% | 100% | – | – | – | – | – | –
8 | Cc1cc(C(F)(C(F)(F)F)C(F)(F)F)cc(C(F)(F)F)c1-n1cc(-c2ccc(Cl)c(C(=O)NC3CC3)c2)cn1 [I-T3-54] | 4.4 | 4.4 | 100% | 100% | 100% | 100% | 100% | 100% | 100% | 100% | 100% | 100% | 100% | 100% | – | – | – | – | – | –
9 | Cc1cc(C(F)(C(F)(F)F)C(F)(F)F)cc(C)c1-c1cnn(-c2cnc(Cl)c(C(=O)NC3CC3)c2)c1 [I-T4-3, 2-chloro-N-cyclopropyl-5-[4-[2,6-dimethyl-4-[1,2,2,2-tetrafluoro-1-(trifluoromethyl)ethyl]phenyl]pyrazol-1-yl]pyridine-3-carboxamide] | – | – | 100% | 100% | 100% | – | 100% | – | – | – | 90% | – | – | – | – | – | – | – | 4.4 | 100%
